Measurements published in patent US20250162989A1, “USP30 INHIBITORS AND USES THEREOF” (Vincere Biosciences, Inc., priority 2021, published 2025).

biological target: recombinant USP30 (amino acids 57-517 of the human sequence) (Homo sapiens (Human), UniProt Q70CQ3); assay: In vitro USP30 biochemical assay (Ubiquitin-Rhodamine substrate); details: 1.5 nM recombinant USP30, 25 nM Ubiquitin-Rhodamine, fluorescence
Description: In vitro biochemical assay to establish the potency of compounds for USP30 inhibition: a 384-well plate assay using a fluorophore tagged substrate of USP30 was used for in vitro screening of compounds. Each compound was tested at
10 different concentrations (0.5 to 10,000 nM) in duplicate wells. […] Data were analyzed using Graph Pad Prism software with a four-parameter (floating slope) fit to log concentration data to determine IC50s.

Chain of recombinant USP30 (amino acids 57-517 of the human sequence) (Q70CQ3 57-517): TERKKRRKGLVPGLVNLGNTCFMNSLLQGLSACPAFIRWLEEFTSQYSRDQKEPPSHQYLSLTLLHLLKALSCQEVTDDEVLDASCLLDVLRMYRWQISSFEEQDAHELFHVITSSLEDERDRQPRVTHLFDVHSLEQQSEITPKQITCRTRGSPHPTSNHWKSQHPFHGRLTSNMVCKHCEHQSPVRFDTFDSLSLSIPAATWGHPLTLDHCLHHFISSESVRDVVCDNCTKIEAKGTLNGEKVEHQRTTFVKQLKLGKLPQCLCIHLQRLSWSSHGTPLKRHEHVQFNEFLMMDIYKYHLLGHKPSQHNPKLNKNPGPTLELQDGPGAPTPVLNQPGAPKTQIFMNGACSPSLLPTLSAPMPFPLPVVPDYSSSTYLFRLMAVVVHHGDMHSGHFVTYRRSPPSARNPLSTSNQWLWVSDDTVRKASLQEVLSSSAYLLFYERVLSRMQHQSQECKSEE

Row | SMILES | IC50 [µM]
1 | CC(C)(C)NS(=O)(=O)c1ccc(NC(=O)[C@H](CC2CCN(C(=O)OCc3ccccc3)CC2)NC(=O)c2ccc(F)cc2)cc1 [Compound I-43, benzyl (S)-4-(3-((4-(N-(tert-butyl)sulfamoyl)phenyl)amino)-2-(4-fluorobenzamido)-3-oxopropyl)piperidine-1-carboxylate] | 0.05 to 1
2 | O=C(N[C@@H](Cc1ccccc1)C(=O)Nc1ccc(S(=O)(=O)NC23CC(C2)C3)c(O)c1)c1ccc(F)cc1 [Compound I-64] | 0.05 to 1
3 | CC(C)(C)NS(=O)(=O)c1ccc(NC(=O)[C@H](Cc2ccccc2)NC(=O)N2CCOCC2)cc1 [Compound I-184] | 1 to 10
4 | COCCC(C)(C)NS(=O)(=O)c1ccc(NC(=O)[C@H](CC(C)C)NC(=O)c2ccc(F)cc2)cc1 [Compound I-18] | 0.05 to 1
5 | COCCC(C)(C)NS(=O)(=O)c1ccc(NC(=O)[C@@H](CC(C)C)NC(=O)c2ccc(F)cc2)cc1 [Compound I-19] | 1 to 10
6 | CC(C)(CO)NS(=O)(=O)c1ccc(NC(=O)[C@H](CC2CC2)NC(=O)c2ccc(F)cc2)cc1 [Compound I-46] | 0.05 to 1
7 | CC(C)(CO)NS(=O)(=O)c1ccc(NC(=O)[C@H](CO)NC(=O)c2ccc(F)cc2)cc1 [Compound I-35] | 1 to 10
8 | CC(C)C[C@H](NC(=O)c1ccc(F)cc1)C(=O)Nc1ccc(S(=O)(=O)NC(C)(C)CO)nc1 [Compound I-17] | 0.05 to 1
9 | CC(C)(CO)NS(=O)(=O)c1ccc(NC(=O)[C@H](CCO)NC(=O)c2ccc(F)cc2)cc1 [Compound I-29] | 1 to 10
10 | COC[C@H](NC(=O)c1ccc(F)cc1)C(=O)Nc1ccc(S(=O)(=O)NC(C)(C)CN2CCOCC2)cc1 [Compound I-33] | 1 to 10
11 | CN1CCN(C(=O)N[C@@H](Cc2ccccc2)C(=O)Nc2ccc(S(=O)(=O)NC(C)(C)C)cc2)CC1 [Compound I-180] | 1 to 10
12 | COC[C@H](NC(=O)c1ccc(F)cc1)C(=O)Nc1ccc(S(=O)(=O)NC(C)(C)CO)cc1 [Compound I-32] | 1 to 10
13 | COCC[C@H](NC(=O)c1ccc(F)cc1)C(=O)Nc1ccc(S(=O)(=O)NC(C)(C)CN2CCOCC2)cc1 [Compound I-27] | 1 to 10
14 | CC(C)(C)NS(=O)(=O)c1ccc(NC(=O)[C@H](Cc2ccccc2)NC(=O)N2CC3(COC3)C2)cc1 [Compound I-179] | 1 to 10
15 | COc1cc(NC(=O)[C@H](CC2CCOCC2)NC(=O)c2ccc(F)cc2)ccc1S(=O)(=O)NC1CCOCC1 [Compound I-134] | 0.05 to 1
16 | CC(C)(C)NS(=O)(=O)c1ccc(NC(=O)[C@H](CC2CCNCC2)NC(=O)c2ccc(F)cc2)cc1 [Compound I-40, (S)—N-(1-((4-(N-(tert-butyl)sulfamoyl)phenyl)amino)-1-oxo-3-(piperidin-4-yl)propan-2-yl)-4-fluorobenzamide] | 0.05 to 1
17 | CC(C)C[C@H](NC(=O)c1ccc(F)cn1)C(=O)Nc1ccc(S(=O)(=O)NC(C)(C)C(F)(F)F)nc1 [Compound I-210] | 0.05 to 1
18 | CC(C)(C)NC(=O)N1CCC(NC(=O)[C@H](Cc2ccccc2)NC(=O)c2ccc(F)cc2)CC1 [Compound I-57, (S)—N-(tert-butyl)-4-(2-(4-fluorobenzamido)-3-phenylpropanamido)piperidine-1-carboxamide] | 1 to 10

Other lines, results leading:

Row | IC50 [µM] | SMILES
19 | 1 to 10 | CC(C)(C)NS(=O)(=O)c1ccc(NC(=O)[C@@H]2C[C@H](O)CN2C(=O)c2ccc(F)cc2)cc1 [Compound I-279]
20 | 1 to 10 | O=C(Nc1ccc(S(=O)(=O)N[C@@H]2CCOC2)cc1)[C@@H]1C[C@@H](c2ccccc2)CN1C(=O)c1ccc(F)cc1 [Compound I-261]
21 | 0.05 to 1 | CC(C)C[C@H](NC(=O)c1ccc(F)cc1)C(=O)Nc1ccc(S(=O)(=O)NC(C)(C)C(F)(F)F)cc1 [Compound I-221]
22 | 0.05 to 1 | CC(C)C[C@H](NC(=O)c1ccc(F)cc1)C(=O)Nc1ccc(S(=O)(=O)NC(C)(C)CF)cc1 [Compound I-230]
23 | 0.05 to 1 | O=C(N[C@@H](Cc1ccccc1)C(=O)Nc1ccc(S(=O)(=O)NCc2ccn[nH]2)cc1)c1ccc(F)cc1 [Compound I-226]
24 | 0.05 to 1 | Cn1nccc1CCNS(=O)(=O)c1ccc(NC(=O)[C@H](Cc2ccccc2)NC(=O)c2ccc(F)cc2)cc1 [Compound I-237]
25 | 1 to 10 | CC(C)C[C@H](NC(=O)c1ccccc1)C(=O)NC1CN(C(=O)OCc2ccccc2)C1 [Compound I-247]
26 | 1 to 10 | O=C(Nc1ccc(S(=O)(=O)NC2COC2)nc1)[C@@H]1C[C@@H](c2ccccc2)CN1C(=O)c1ccc(F)cc1 [Compound I-271]
27 | 1 to 10 | CO[C@H]1C[C@@H](C(=O)Nc2ccc(S(=O)(=O)NC(C)(C)C)cc2)N(C(=O)c2ccc(F)cc2)C1 [Compound I-290]
28 | 1 to 10 | CC(=O)O[C@H]1C[C@@H](C(=O)Nc2ccc(S(=O)(=O)NC(C)(C)C)cc2)N(C(=O)c2ccc(F)cc2)C1 [Compound I-285]
29 | 1 to 10 | CC(C)(CO)NS(=O)(=O)c1ccc(NC(=O)[C@@H]2C[C@@H](c3ccccc3)CN2C(=O)c2ccc(F)cc2)cc1 [Compound I-262]
30 | 1 to 10 | CC(C)(CO)NS(=O)(=O)c1ccc(NC(=O)[C@@H]2C[C@@H](C3CCCCC3)CN2C(=O)c2ccc(F)cc2)cc1 [Compound I-254]
31 | 1 to 10 | COc1cc(NC(=O)[C@@H]2C[C@@H](C3CCCCC3)CN2C(=O)c2ccc(F)cc2)cnc1S(=O)(=O)NC(C)(C)C [Compound I-255]
32 | 0.05 to 1 | CC(C)(NS(=O)(=O)c1ccc(NC(=O)[C@H](Cc2ccccn2)NC(=O)c2ccc(F)cc2)cc1)C(F)(F)F [Compound I-212]
33 | 0.05 to 1 | CC(C)(C)NS(=O)(=O)c1ccc(NC(=O)C2CC(C3CCCCC3)CN2C(=O)c2ccc(F)cc2)cc1 (centres unmarked) [Compound I-292]

same assay, conditions: […] recombinant USP30, 25 nM Ubiquitin-Rhodamine, fluorescence

Row | SMILES | IC50 [µM]
34 | CC(C)(C)NS(=O)(=O)c1ccc(NC(=O)[C@@H](CC2COC2)NC(=O)c2ccc(F)cc2)cc1 [Compound I-39, (R)—N-(1-((4-(N-(tert-butyl)sulfamoyl)phenyl)amino)-3-(oxetan-3-yl)-1-oxopropan-2-yl)-4-fluorobenzamide] | > 10
35 | N#CCN1CC[C@@H](NC(=O)[C@H](Cc2ccccc2)NC(=O)c2ccc(F)cc2)C1 [Compound I-154] | > 10
36 | CC(C)(C)NS(=O)(=O)c1ccc(NC(=O)[C@H](Cc2ccccc2)NC(=O)c2ccc(F)cc2)cc1O [Compound I-63] | < 0.05
37 | CC(C)(NS(=O)(=O)c1ccc(NC(=O)[C@H](CC2CCOCC2)NC(=O)c2ccc(F)cc2)cc1)C(F)(F)F [Compound I-126] | < 0.05
38 | CC(=O)N1CCC(NC(=O)[C@H](Cc2ccccc2)NC(=O)c2ccc(F)cc2)CC1 [Compound I-114] | > 10
39 | CN1CCN(C(=O)N[C@@H](Cc2ccccc2)C(=O)Nc2cccc3c(S(=O)(=O)NC(C)(C)C)cccc23)CC1 [Compound I-198] | > 10
40 | O=C(N[C@@H](Cc1ccccc1)C(=O)NC1CCN(C(=O)OCc2ccccc2)CC1)c1ccc(F)cc1 [Compound I-113] | > 10
41 | CC(C)C[C@@H](NC(=O)c1ccc(F)cc1)C(=O)Nc1ccc(S(=O)(=O)NC(C)(C)C)cc1 [Compound I-12] | > 10
42 | CC(C)(CN1CCOCC1)NS(=O)(=O)c1ccc(NC(=O)[C@H](CO)NC(=O)c2ccc(F)cc2)cc1 [Compound I-36, (S)-4-fluoro-N-(3-hydroxy-1-((4-(N-(2-methyl-1-morpholinopropan-2-yl)sulfamoyl)phenyl)amino)-1-oxopropan-2-yl)benzamide] | > 10
43 | CC(C)(C)NS(=O)(=O)c1cccc2c(NC(=O)[C@H](Cc3ccccc3)NC(=O)C3CCNCC3)cccc12 [Compound I-187] | > 10

The next lines start with the values.

Row | IC50 [µM] | SMILES
44 | > 10 | CO[C@H]1C[C@@H](C(=O)Nc2ccc(S(=O)(=O)NC3COC3)cc2)N(C(=O)c2ccc(F)cc2)C1 [Compound I-289]
45 | < 0.05 | CC1(NC(=O)[C@H](Cc2ccccc2)NC(=O)c2ccc(F)cc2)CN(C#N)C1 [Compound I-250]
46 | > 10 | CC(C)(C)NS(=O)(=O)c1ccc(NC(=O)C(CC(N)=O)NC(=O)c2ccc(F)cc2)cc1 (centres unmarked) [Compound I-244]
47 | > 10 | CO[C@H]1C[C@@H](C(=O)Nc2ccc(S(=O)(=O)NC(C)(C)CO)cc2)N(C(=O)c2ccc(F)cc2)C1 [Compound I-291]
48 | > 10 | CO[C@@H]1C[C@@H](C(=O)Nc2ccc(S(=O)(=O)NC3COC3)cc2)N(C(=O)c2ccc(F)cc2)C1 [Compound I-278]
49 | < 0.05 | CC(C)C[C@H](NC(=O)c1ccccc1)C(=O)NC1CN(C#N)C1 [Compound I-249]
50 | > 10 | O=C(Nc1ccc(S(=O)(=O)NC2COC2)cc1)[C@@H]1C[C@@H](O)CN1C(=O)c1ccc(F)cc1 [Compound I-276]
51 | > 10 | CC(C)(C)NS(=O)(=O)c1ccc(NC(=O)[C@@H]2C[C@@H](O)CN2C(=O)c2ccc(F)cc2)cc1 [Compound I-264]
52 | > 10 | CC(C)(CO)NS(=O)(=O)c1ccc(NC(=O)[C@@H]2C[C@@H](O)CN2C(=O)c2ccc(F)cc2)cc1 [Compound I-275]
53 | > 10 | CC(C)(CO)NS(=O)(=O)c1ccc(NC(=O)[C@@H]2C[C@H](O)CN2C(=O)c2ccc(F)cc2)cc1 [Compound I-280]
54 | < 0.05 | Cn1cnc(CNS(=O)(=O)c2ccc(NC(=O)[C@H](Cc3ccccc3)NC(=O)c3ccc(F)cc3)cc2)c1 [Compound I-238]
55 | > 10 | CO[C@@H]1C[C@@H](C(=O)Nc2ccc(S(=O)(=O)NC(C)(C)CO)cc2)N(C(=O)c2ccc(F)cc2)C1 [Compound I-268]
56 | > 10 | CO[C@H]1C[C@@H](C(=O)Nc2ccc(S(=O)(=O)N[C@@H]3CCOC3)cc2)N(C(=O)c2ccc(F)cc2)C1 [Compound I-288]
57 | < 0.05 | CC(C)N1CCC(C[C@H](NC(=O)c2ccc(F)cc2)C(=O)Nc2ccc(S(=O)(=O)NC(C)(C)C)cc2)CC1 [Compound I-287]
58 | > 10 | O=C(Nc1ccc(S(=O)(=O)NC2COC2)cc1)[C@@H]1C[C@H](O)CN1C(=O)c1ccc(F)cc1 [Compound I-281]
59 | > 10 | CC(C)C[C@H](NC(=O)c1ccc(F)cc1)C(=O)NC1CN(C(=O)OCc2ccccc2)C1 [Compound I-248]
